Molecular target: Bcl-2-like protein 1 (Homo sapiens, UniProt Q07817)
Assay: Binding affinity to recombinant Bcl-XL expressed in Escherichia coli BL21 by fluorescence polarization assay

Chain of Bcl-2-like protein 1 (Q07817 whole entry): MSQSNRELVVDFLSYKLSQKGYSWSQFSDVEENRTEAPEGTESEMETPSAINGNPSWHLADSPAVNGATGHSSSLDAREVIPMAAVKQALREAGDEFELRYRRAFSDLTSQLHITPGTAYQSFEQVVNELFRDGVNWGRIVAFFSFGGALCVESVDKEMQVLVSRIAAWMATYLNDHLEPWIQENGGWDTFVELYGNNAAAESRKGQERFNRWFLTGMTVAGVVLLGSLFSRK

EC50 | Compound
359 nM | CC[C@H](C)[C@H](NC(=O)[C@H](C)NC(=O)[C@H](Cc1cccc(Cl)c1)NC(=O)[C@H](CCC(N)=O)NC(=O)[C@H](CCCN=C(N)N)NC(=O)CNC(=O)[C@@H](NC(=O)[C@H](CCC(N)=O)NC(=O)CN)C(C)C)C(=O)N[C@H](C(=O)NCC(=O)N[C@@H](CC(=O)O)C(=O)N[C@@H](CC(=O)O)C(=O)N[C@H](C(=O)N[C@@H](CC(N)=O)C(=O)N[C@@H](CCCN=C(N)N)C(=O)O)[C@@H](C)CC)[C@@H](C)CC
1300 nM | CC[C@H](C)[C@H](NC(=O)[C@H](C)NC(=O)[C@H](CC(C)C)NC(=O)[C@H](CCC(N)=O)NC(=O)[C@H](CCCN=C(N)N)NC(=O)CNC(=O)[C@@H](NC(=O)[C@H](CCC(N)=O)NC(=O)CN)C(C)C)C(=O)N[C@@H](Cc1ccc2ccccc2c1)C(=O)NCC(=O)N[C@@H](CC(=O)O)C(=O)N[C@@H](CC(=O)O)C(=O)N[C@H](C(=O)N[C@@H](CC(N)=O)C(=O)N[C@@H](CCCN=C(N)N)C(=O)O)[C@@H](C)CC
54 nM | CC[C@H](C)[C@H](NC(=O)[C@H](C)NC(=O)[C@H](CC(C)C)NC(=O)[C@H](CCC(N)=O)NC(=O)[C@H](CCCN=C(N)N)NC(=O)CNC(=O)[C@@H](NC(=O)[C@H](CCC(N)=O)NC(=O)CN)C(C)C)C(=O)N[C@H](C(=O)NCC(=O)N[C@@H](CC(=O)O)C(=O)N[C@@H](CC(=O)O)C(=O)N[C@@H](Cc1ccccc1)C(=O)N[C@@H](CC(N)=O)C(=O)N[C@@H](CCCN=C(N)N)C(=O)O)[C@@H](C)CC
125 nM | CC[C@H](C)[C@H](NC(=O)[C@H](C)NC(=O)[C@H](CC(C)C)NC(=O)[C@H](CCC(N)=O)NC(=O)[C@H](CCCN=C(N)N)NC(=O)CNC(=O)[C@@H](NC(=O)[C@H](CCC(N)=O)NC(=O)CN)C(C)C)C(=O)N[C@H](C(=O)NCC(=O)N[C@@H](CC(=O)O)C(=O)N[C@@H](CC(=O)O)C(=O)N[C@@H](Cc1ccc2ccccc2c1)C(=O)N[C@@H](CC(N)=O)C(=O)N[C@@H](CCCN=C(N)N)C(=O)O)[C@@H](C)CC
225 nM | CC[C@H](C)[C@H](NC(=O)[C@H](C)NC(=O)[C@H](CCc1ccccc1)NC(=O)[C@H](CCC(N)=O)NC(=O)[C@H](CCCNC(=N)N)NC(=O)CNC(=O)[C@@H](NC(=O)[C@H](CCC(N)=O)NC(=O)CN)C(C)C)C(=O)N[C@H](C(=O)NCC(=O)N[C@@H](CC(=O)O)C(=O)N[C@@H](CC(=O)O)C(=O)N[C@H](C(=O)N[C@@H](CC(N)=O)C(=O)N[C@@H](CCCNC(=N)N)C(=O)O)[C@@H](C)CC)[C@@H](C)CC
219 nM | CC[C@H](C)[C@H](NC(=O)[C@H](C)NC(=O)[C@H](CC1CCCCC1)NC(=O)[C@H](CCC(N)=O)NC(=O)[C@H](CCCNC(=N)N)NC(=O)CNC(=O)[C@@H](NC(=O)[C@H](CCC(N)=O)NC(=O)CN)C(C)C)C(=O)N[C@H](C(=O)NCC(=O)N[C@@H](CC(=O)O)C(=O)N[C@@H](CC(=O)O)C(=O)N[C@H](C(=O)N[C@@H](CC(N)=O)C(=O)N[C@@H](CCCNC(=N)N)C(=O)O)[C@@H](C)CC)[C@@H](C)CC
405 nM | CC[C@H](C)[C@H](NC(=O)[C@H](C)NC(=O)[C@H](Cc1ccccc1)NC(=O)[C@H](CCC(N)=O)NC(=O)[C@H](CCCN=C(N)N)NC(=O)CNC(=O)[C@@H](NC(=O)[C@H](CCC(N)=O)NC(=O)CN)C(C)C)C(=O)N[C@H](C(=O)NCC(=O)N[C@@H](CC(=O)O)C(=O)N[C@@H](CC(=O)O)C(=O)N[C@H](C(=O)N[C@@H](CC(N)=O)C(=O)N[C@@H](CCCN=C(N)N)C(=O)O)[C@@H](C)CC)[C@@H](C)CC
267 nM | CC[C@H](C)[C@H](NC(=O)[C@H](C)NC(=O)[C@H](CC(C)C)NC(=O)[C@H](CCC(N)=O)NC(=O)[C@H](CCCNC(=N)N)NC(=O)CNC(=O)[C@@H](NC(=O)[C@H](CCC(N)=O)NC(=O)CN)C(C)C)C(=O)N[C@H](C(=O)NCC(=O)N[C@@H](CC(=O)O)C(=O)N[C@@H](CC(=O)O)C(=O)N[C@@H](Cc1ccc(-c2ccccc2)cc1)C(=O)N[C@@H](CC(N)=O)C(=O)N[C@@H](CCCNC(=N)N)C(=O)O)[C@@H](C)CC
77 nM | CC[C@H](C)[C@H](NC(=O)[C@H](C)NC(=O)[C@H](CC(C)C)NC(=O)[C@H](CCC(N)=O)NC(=O)[C@H](CCCN=C(N)N)NC(=O)CNC(=O)[C@@H](NC(=O)[C@H](CCC(N)=O)NC(=O)CN)C(C)C)C(=O)N[C@H](C(=O)NCC(=O)N[C@@H](CC(=O)O)C(=O)N[C@@H](CC(=O)O)C(=O)N[C@@H](Cc1cccc2ccccc12)C(=O)N[C@@H](CC(N)=O)C(=O)N[C@@H](CCCN=C(N)N)C(=O)O)[C@@H](C)CC
17000 nM | CC[C@H](C)[C@H](NC(=O)[C@H](C)NC(=O)[C@H](CC(C)C)NC(=O)[C@H](CCC(N)=O)NC(=O)[C@H](CCCNC(=N)N)NC(=O)CNC(=O)[C@@H](NC(=O)[C@H](CCC(N)=O)NC(=O)CN)C(C)C)C(=O)N[C@@H](C)C(=O)NCC(=O)N[C@@H](CC(=O)O)C(=O)N[C@@H](CC(=O)O)C(=O)N[C@H](C(=O)N[C@@H](CC(N)=O)C(=O)N[C@@H](CCCNC(=N)N)C(=O)O)[C@@H](C)CC
1470 nM | CC[C@H](C)[C@H](NC(=O)[C@H](C)NC(=O)[C@H](CC(C)C)NC(=O)[C@H](CCC(N)=O)NC(=O)[C@H](CCCNC(=N)N)NC(=O)CNC(=O)[C@@H](NC(=O)[C@H](CCC(N)=O)NC(=O)CN)C(C)C)C(=O)N[C@@H](Cc1ccc([N+](=O)[O-])cc1)C(=O)NCC(=O)N[C@@H](CC(=O)O)C(=O)N[C@@H](CC(=O)O)C(=O)N[C@H](C(=O)N[C@@H](CC(N)=O)C(=O)N[C@@H](CCCNC(=N)N)C(=O)O)[C@@H](C)CC
> 10000 nM | CC[C@H](C)[C@H](NC(=O)[C@H](C)NC(=O)[C@H](CC(C)C)NC(=O)[C@H](CCC(N)=O)NC(=O)[C@H](CCCNC(=N)N)NC(=O)CNC(=O)[C@@H](NC(=O)[C@H](CCC(N)=O)NC(=O)CN)C(C)C)C(=O)N[C@H](C(=O)NCC(=O)N[C@@H](CC(=O)O)C(=O)N[C@@H](CC(=O)O)C(=O)N[C@@H](CCC(=O)O)C(=O)N[C@@H](CC(N)=O)C(=O)N[C@@H](CCCNC(=N)N)C(=O)O)[C@@H](C)CC
304 nM | CC[C@H](C)[C@H](NC(=O)[C@H](C)NC(=O)[C@H](CC(C)C)NC(=O)[C@H](CCC(N)=O)NC(=O)[C@H](CCCN=C(N)N)NC(=O)CNC(=O)[C@H](Cc1ccccc1)NC(=O)[C@H](CCC(N)=O)NC(=O)CN)C(=O)N[C@H](C(=O)NCC(=O)N[C@@H](CC(=O)O)C(=O)N[C@@H](CC(=O)O)C(=O)N[C@H](C(=O)N[C@@H](CC(N)=O)C(=O)N[C@@H](CCCN=C(N)N)C(=O)O)[C@@H](C)CC)[C@@H](C)CC
45 nM | CC[C@H](C)[C@H](NC(=O)[C@H](C)NC(=O)[C@H](CC(C)C)NC(=O)[C@H](CCC(N)=O)NC(=O)[C@H](CCCN=C(N)N)NC(=O)CNC(=O)[C@@H](NC(=O)[C@H](CCC(N)=O)NC(=O)CN)C(C)C)C(=O)N[C@H](C(=O)NCC(=O)N[C@@H](CC(=O)O)C(=O)N[C@@H](CC(=O)O)C(=O)N[C@@H](Cc1ccc(I)cc1)C(=O)N[C@@H](CC(N)=O)C(=O)N[C@@H](CCCN=C(N)N)C(=O)O)[C@@H](C)CC
5120 nM | CC[C@H](C)[C@H](NC(=O)[C@H](C)NC(=O)[C@H](CC(C)C)NC(=O)[C@H](CCC(N)=O)NC(=O)[C@H](CCCNC(=N)N)NC(=O)CNC(=O)[C@@H](NC(=O)[C@H](CCC(N)=O)NC(=O)CN)C(C)C)C(=O)N[C@H](C(=O)NCC(=O)N[C@@H](CC(=O)O)C(=O)N[C@@H](CC(=O)O)C(=O)N[C@@H](Cc1cnc[nH]1)C(=O)N[C@@H](CC(N)=O)C(=O)N[C@@H](CCCNC(=N)N)C(=O)O)[C@@H](C)CC
